The results in this text go back to patent US3985878A, “Anti-inflammatory and antirheumatic compounds and preparation” (priority 1974, dated 1976).

Values joined by “and” are separate entries in the source; they are usually repeats but may differ in a detail not shown here. Equal entries are not always repeated. Where two headings read alike, the source gives them in different places.

Usually ED50 stands for the midpoint of the dose-response relation.

Series [1] in a line: Anti-inflammatory activity, paw test (Domenjoz test). The class given is in vivo, rat. Particulars: rat, oral 1 hour before carragheen 1%; paws weighed after two hours; read-out: ED50 per os, acute anti-inflammatory activity (Domenjoz test). As for the experimental part: 1a. Anti-inflammatory activity: this activity was measured by the paw test according to Doemnjoz, characterised in its carrying out by the following method:
To young rats of medium weight of 200 g there is administered by hypodermic injection into the right paw an aqueous suspension of carragheen at 1%, 1 hour after the oral administration of the drugs under investigation.
After two hours from the administration of the carragheen, the pawas are disjointed, weighed, and comparison is made between the injected paw, meanwhile swollen, and the paw not interfered with.
This evaluation is expressed both in mg/kg of animal weight and in micromoles/Kg of weight of the animal.

Series [2] can be described thus: Pellets-induced granuloma test (cotton pellets). The following applies: rat. The class given is in vivo, rat. How it is done:
1b. Pellets-induced granuloma test:
Another important test for the evaluation of an anti-inflammatory is that of cotton pellets. This consists of planting a sterile cotton pellet under the rat's back skin.
This pellet is left in situ for a week while the animals are treated daily with various doses of the drug being examined. Evaluation is effected by weighing the pellets taken at the given time and dried, comparing the weight of those of the treated animals with the checks.

Series [3] in a line: Analgesic activity, phenylquinone test. It is filed as in vivo, rat. Particulars: rat, oral; read-out: ED50 per os, analgesic activity (phenylquinone test). From the text:
2. Analgesic activity: The analgesic activity of an anti-inflammatory can be examined traditionally by the phenylquinone method based on the fact that intra-peritoneal administration to a rat of an irritant substance such as phenylquinone induces vocal reactions ("squirring") in the animal.
From the number of these reactions one judges the pain sensitivity.

The subject of the next series is fibroblast culture. Nature of the series: Production of mucopolysaccharides from fibroblast culture in vitro. The class given is cell-based. How it is done: a. Tests in vitro: These tests consist of the cultivation in vitro, i.e., outside the organism, of tissue of the same embriological origin in relation to the osteoarticular. Upon the growth of this tissue there is then measured the activities of the various drugs. The units of measurement of these activities is the production of glucosaminoglicanes (mucopolysaccharides measured by the turbidimetric method).
The compounds which form the subject of this invention were evaluated according to this test and compared with known anti-inflammatories.

Series [4] is described as follows: Osteolathyrism in the rabbit (aminoacetonitrile). The class given is in vivo. As for the experimental part: B. Tests in vivo: Osteolathyrism in the rabbit.
Osteolathrism consists of inducing into young rabbits a dystrophy of the bone joint system, administering every day aminoacetonitrile by i.p. means, in the quantity of 100 mg/kg of body weight. With this treatment, in about 30 days, the following changes are shown in the rabbit:
Loss of weight (related to the checks physiologically treated), ptosis of the auricular pavilion, loss of fur, deformation of the front and rear limbs, deterioration of the general condition.
All this takes place because the aminoacetonitrile is a collagen tissue poison which changes the biochemical composition of the joint cartilages and the bones.
An evaluation of the therapeutic activity can be made either by biochemical evaluation, i.e. by measuring the quantity of aminosugars in these tissues, or by considering only the general symptoms, which are proportional to the diminution of the aminosugars.
In Table 5 this latter evaluation is reported, in which every symptom was evaluated by allotting it a number from 0 to 4, 4 indicating the maximum amount of damage and 0 indicating no damage.
On Table 5 there are given the results of treatment evaluated on the 25th day, comparing the groups treated only with a physiological solution, only with aminoacetonitrile, with aminoacetonitrile and CR 604, with aminoacetonitrile and Indometacin in the prescribed doses.
Each group consisted of 8 animals.

The nature of series [5]: Irritant and ulceroid (gastrolesive) activity on the gastric mucosa. Particulars: in vivo, rat. As for the experimental part: 4. Irritant and ulceroid activity on the gastric mucosa
The experimental evaluation of this activity was made on rats, by the method here reported:
The compound is administered orally to rats which have fasted for 12 hours, the animals being killed 4 hours after the administration.
Regarded as positive, i.e. with stomach damage, are those animals which have at least one haemorrhage point on the stomach wall.
By ED50 there is meant that dose of the drug which can […] in 50% of the animals treated, the formation of these haemorrhages.
In Table 6 there are compared CR 604 and Indometacin, since the latter is, amongst them all, the nearest to the anti-inflammatory activity values of CR 604.

The format of series [6] is in vivo, human. The following applies: in vivo. As for the experimental part: Thus for example comparing CR 604 administered in capsules of 75 mg (6 per day), with Indometacin in capsules of 25 mg (6 per day), i.e. in approximately equimolecular doses on a group of 60 subjects treated (30 with CR 604 and 30 with Indometacin, one notes that (see Table 7): […]
For the next series, the system named is uropepsinogene. The class given is in vivo, human. The following applies: in vivo. How it is done:
(§1) Thus for example comparing CR 604 administered in capsules of 75 mg (6 per day), with Indometacin in capsules of 25 mg (6 per day), i.e. in approximately equimolecular doses on a group of 60 subjects treated (30 with CR 604 and 30 with Indometacin, one notes that (see Table 7):
Gastric secretion of pepsin is increased by agents which irritate and damage the gastric mucosa.

The subject of the next series is urinary calcium. It is filed as in vivo, human. The following applies: in vivo. How it is done:
as §1
c. […] Excretion of calcium is related to the destruction of the fibrils of the proteic bone matrix which thus also loses the calcium deposited upon it.
The administration of known anti-inflammatories brings about the lysis of these fibrils with loss of calcium.

The next series is described as follows: Solubility. It is filed as physicochemical.
Series [7] can be described thus: Tolerance in animals, subacute and chronic. The following applies: up to 6 months administration to animals, quantities greater than those recommended for human beings. The class given is in vivo. From the text: For these substances, and particularly for CR 604, tolerance tests were made, subacute and chronic, by up to 6 months administration to the animals.
Setting [8] is: score 0 (no damage) to 4 (maximum damage), 15 mg/kg/day i.p. + aminoacetonitrile 100 mg/kg/day, 25 days.

`CCCN(CCC)C(=O)C(CCC(=O)OCCCN1CCN(CCOC(=O)Cc2c(C)n(C(=O)c3ccc(Cl)cc3)c3ccc(OC)cc23)CC1)NC(=O)c1ccccc1` (racemic) [CR 604 (di-maleate), N'-2-[1-(p-chlorobenzoyl)-5-methoxy-2-methyl-3-indoleacetoxy]ethyl-N-3-(N-benzoyl-N', N'-di-n-propyl-DL-isoglutaminoyl)-oxypropyl-piperazine]: the ED50 in series [1] is 11.5 µmol/kg and 12.3 mg/kg. Moreover, the ED50 in [2] (oral, daily for a week, read-out: ED50 per os, acute anti-inflammatory activity (granuloma test)) was 25.6 µmol/kg and 27.6 mg/kg. Besides, the ED50 in series [3] was 5.3 µmol/kg and 5.72 mg/kg. In the series with fibroblast culture (Fibroblast, 240 h, 6 μg/ml of culture liquid, read-out: Mucopolysaccharide products at the tenth day of incubation), the activity at 6 µg/mL came out at 108%. Besides, in series [4] (setting [8]), the “Deformed gait of back legs” value turned out to be 0.6, the “Deformed gait of front legs” value is on record as 0, the “General Condition of Animal” value is 0.2 and the Loss of fur is on record as 0. In series [4] (setting [8]), the Loss of weight is on record as 0 and the “Ptosis of auricular pavilion” value is reported as 0.2. Further, in series [5] (oral, fasted 12 hours, killed 4 hours after administration, read-out: ED50 gastrolesive), the TD50 at 4 h worked out at 330 µmol/kg. Further, the TD50 at 4 h in series [5] (po) stood at 355 mg/kg. Besides, the Epigastric pain in series [6] is given as 0 % of patients in pain. For the same compound, in the series on uropepsinogene, the Uropepsinogene was 216.3 equivalent mg of tyrosine per. For the same compound, the Urinary calcium in the series with urinary calcium is given as 132 mg/1000 cc of urine. Further, the solubility in acetone result in “Solubility” (acetone) is given as “slightly soluble”. Besides, in “Solubility” (ethanol), the solubility in ethanol result is given as “slightly soluble”. In addition, in the series “Solubility” (methanol), the solubility in methanol entry is reported as “more soluble”. The “solubility in water, in words” value in “Solubility” (water) was “Insoluble”.
Turning to `CCCN(CCC)C(=O)C(CCC(=O)OCCCN1CCN(CCOC(=O)Cc2c(C)n(C(=O)c3ccc(Cl)cc3)c3ccc(OC)cc23)CC1)NC(=O)c1ccccc1` (racemic) [CR 604, N'-2-[1-(p-chlorobenzoyl)-5-methoxy-2-methyl-3-indoleacetoxy]ethyl-N-3-(N-benzoyl-N', N'-di-n-propyl-DL-isoglutaminoyl)-oxypropyl-piperazine], in series [2], the “anti-inflammatory activity (granuloma test), in words” value is given as “high anti-inflammatory activity”. Besides, the “effect on growth and production of mucopolysaccharides, in words” value in the series on fibroblast culture (in vitro culture of collagen tissue) was “does not harm”. Besides, in series [4] (rabbit), the “effect on aminoacetonitrile symptoms, in words” value is listed as “greatly modifies these toxic symptoms”. Besides, in [5] (po), the “gastrolesive dose, in words” value is “so high as to be of no practical importance, being roughly equal to a fatal dose”. Further, the “tolerance, subacute and chronic” value in series [7] is “well tolerated without any special anatomical or functional lesion”. Besides, the “uropepsinogene in urine, in words” value in the series on uropepsinogene was “diminishes in the urine”. Also, in the series on urinary calcium, the “destruction (lysis) of fibrils of proteic bone matrix, in words” value is on record as “does not induce this destruction or reduces it” and the “excretion of urinary calcium, in words” value is “reduction in the excretion of urinary calcium”.
